Tests used:
day 7 skin wound = assay: In vivo playoff of custom-made phage library with microdialysis recovery and HTS in rat skin wound model; conditions: for Liver Count: HTS reads in liver after 1 h circulation and perfusion; for Wound without probe Count: HTS reads in wound tissue after 1 h circulation and perfusion; for Normal skin microdialysate Count / Wound microdialysate Count: HTS reads; for Normal skin microdialysate Count: probe under normal skin; for Normal skin microdialysate Count / Wound microdialysate Count / Wound microdialysate %: dialysate collected 1 h; for Wound microdialysate Count / Wound microdialysate %: rat; for Wound microdialysate Count: i.v. tail vein, 3-MDa probe under day 7 wound; for Liver %: share of HTS reads in liver after 1 h circulation and perfusion; for Wound without probe %: share of HTS reads in wound tissue after 1 h circulation and perfusion; for Wound microdialysate %: share of HTS reads, i.v.
Protocol: We next tested the applicability of the microdialysis-based system for extravascular phage recovery in the rat wound model. In the initial proof-of-concept studies, we used an in vivo “playoff” approach that allows parallel auditioning of the performance of peptide phages in low-complexity mixtures ([Pleiko et al, 2021]). Wound-bearing rats were dosed with a pool of phages displaying peptides known to home to angiogenic vessels and penetrate tissues, CAR (amino acid sequence CARSKNKDC) and iRGD (CRGDKGPDC). The CAR peptide uses a heparan sulfate proteoglycan (syndecan-4)–dependent pathway for the wound homing and penetration ([Järvinen & Ruoslahti, 2007], [2010]; [Maldonado et al, 2023]), whereas iRGD first homes to αv integrins in angiogenic vasculature followed by proteolytic cleavage of the peptide and binging to neuropilin-1, which activates a trans-tissue transport pathway, the CendR pathway ([Sugahara et al, 2009], [2010]; [Teesalu et al, 2009]). […] Peptides lacking tissue-penetrating properties were included as controls. The CRK (CRKDKC) peptide homes to angiogenic blood vessels, but remains bound to the blood vessels ([Järvinen & Ruoslahti, 2007]; [Agemy et al, 2010]). The test pool also included peptide phage clones identified during an in vivo phage display screen for peptides homing to skin wounds but not selected for further analysis at that time ([Järvinen & Ruoslahti, 2007]). As negative controls, we included phages from a naïve peptide phage library that display random peptides.
Microdialysis probes with 3-MDa cutoff were implanted under the center of a day 7 skin wound (peak of angiogenesis) in rats, or under normal skin (Fig S2). Care was taken not to rupture blood vessels during the probe insertion, and a proper probe location was confirmed at the end of the experiment. After insertion, the microdialysis device was run for 45 min to allow the local flow inside the catheter to be established (manufacturer’s recommendation) ([Joukhadar & Müller, 2005]; [Chaurasia et al, 2007]), followed by intravenous injection of the phage cocktail, and sampling of wound and control dialysates for 60 min. Subsequently, the animals were perfused to remove free phages, and wounds and control organs were collected for further analysis. […] No phages (including CAR and iRGD phages) were detected in the dialysates placed in the intact normal skin (Table 1).
The custom-made phage library for the in vivo validation was cloned on T7 415-1 backbone, grown in BL21 E. coli strain, and filter-sterilized. The phages were either cloned as described previously or picked randomly from a phage library ([Järvinen & Ruoslahti, 2007]; [Teesalu et al, 2009]; [Pemmari et al, 2020a]). Each phage clone was sequenced. The custom-made library was made by mixing an equal amount of each phage (titer 5 × 10^9).
(§1) For the in vivo microdialysis, CMA 402 Syringe Pump with Hamilton syringes was used to push and the Harvard P70 peristaltic pump (Harvard Apparatus) to pull the CMA perfusion fluid (CMA Microdialysis AB) and dialysate. Each of the CMA 402 two outputs was connected to the inlet spike of the CMA 12 custom-made 3-MDa probe (CMA Microdialysis AB) via CMA FEP tubing (CMA Microdialysis AB), and the outlet spike of the CMA 12 probe was further connected to Harvard P70 peristaltic pump and further to CMA Probe Shaft Clip (CMA Microdialysis AB) via CMA connector tubing (CMA Microdialysis AB). From the CMA Probe Shaft Clip, the dialysate was pumped into CMA sample tubes (CMA Microdialysis AB). Harvard 0.19-mm-diameter tubing (Harvard Apparatus) and Harvard 3 collar 1.52-mm tubing (Harvard Apparatus) were used with the Harvard P70 peristaltic pump. In addition, CMA tubing adaptors (CMA Microdialysis AB) were used for connecting tubes to syringes and probes. The system was flushed with 70% ethanol before any use.
Male Wistar rats were used for the in vivo validation experiment and the library screen. The rats were 27 wk old and weighed 490 g. […]

CHO-K cells = assay: Peptide internalization in vitro, confocal imaging, CHO-K cells; format: cell-based, Chinese hamster; conditions: FAM-labeled peptide 20 μM, 3 h, 37°C, confocal fluorescence imaging, representative of three experiments
Protocol: Figure 1. Microdialysis-captured peptides penetrate the cell membrane. […] CHO-K cells were grown on chamber slides. […] The scale bar is 20 μm. Images are representative of three individual experiments.
Plain growth medium was used as a negative control.

day 7 skin wounds = assay: In vivo phage display screen of naive CX7C T7 library using microdialysis and HTS; parameters: species or system rat; conditions: for Total counts / First hour (counts) / Second hour (counts): wound microdialysate; for Total counts: first 2 h; for First hour (counts): first hour after library injection, rat 7-d-old wound; for First hour (counts) / Second hour (counts): Ion Torrent HTS; for Second hour (counts): second hour after library injection
Text: We next adopted microdialysis-based biopanning to identify new wound-penetrating peptides. We used a CX7^trinucC peptide T7 phage library (diversity 3.9 × 10^8) in which random amino acids are encoded by equally represented trinucleotides to prevent codon bias ([Pleiko et al, 2021]). The library was cloned into the genome of the T7 bacteriophage engineered for longer circulation half-life and reduced liver uptake ([Hodyra-Stefaniak et al, 2019]). For biopanning, 3.9 × 10^10 phages (∼100 copies of each phage clone) displaying the C7X^trinucC library were injected in the tail vein of rats with day 7 skin wounds. Microdialysates were collected from probes placed in wounds or normal skin (Table S1). Most of the phage recovery at the microdialysis probe happened during the first 2 h after library dosing. The wound dialysates yielded almost all phages introduced into the two microdialysis probes, only one phage clone was recovered from normal skin dialysate (Table S1). We observed that most of the peptide phage clones appeared in the microdialysate during the first 2 h after phage dosing (Table S1). To obtain representative tissue biodistribution of phage clones in relation to dialysates, the skin wound–bearing rats with no inserted dialysis probes were dosed with the naïve CX7^trinucC peptide library, followed by 30-min circulation, perfusion, collection of organs, and analysis of peptide landscapes. The two dialysates collected during the first 2 h were subjected to HTS (Table S2). Whole tissue samples from the wound with and without the probe (1 + 5 wounds) at 30 min and 5 h, as well as control samples from 14 different tissues (2 × 14) and from normal skin (1 x with and 2 x without probe), and two serum samples at the time of euthanasia (30 min and 5 h after the library injection) were subjected to HTS. […] However, the wound microdialysates contained 13 enriched peptide sequences (Table 2). […] A BLAST analysis on candidate peptide sequences was used to scan for sequence homologies with proteins related to angiogenesis, endocytosis, and wound healing (Table S3).
The phage library used in the in vivo screen with the microdialysis probe was in the 10-3b T7 backbone (5–15 peptide copies per phage), grown in BLT5403 E. coli strain, CsCl-purified, dialyzed in PBS, and filter-sterilized. The library was constructed via trinucleotide synthesis to prevent bias in the amount of different amino acids ([Kayushin et al, 1996]). The diversity of the library was 1 × 10^9 and the titer 5 × 10^10 per ml.
as §1
Male Wistar rats were used for the in vivo validation experiment and the library screen. The rats were 27 wk old and weighed 490 g. Two full-thickness circular wounds were created on a shaved and disinfected skin with a 12-mm-diameter biopsy punch and scissors under sevoflurane anesthesia (Sevoflurane Baxter, Baxter SA) and carprofen analgesia ([…]; Norocarp, Norbrook Laboratories). […]

Substance	Liver Count (day 7 skin wound)	Wound without probe Count (day 7 skin wound)	Normal skin microdialysate Count (day 7 skin wound)	Wound microdialysate Count (day 7 skin wound)	Liver % (day 7 skin wound)	Wound without probe % (day 7 skin wound)	Wound microdialysate % (day 7 skin wound)	cellular uptake in CHO-K cells (CHO-K cells)	Total counts (day 7 skin wounds)	First hour (counts) (day 7 skin wounds)	Second hour (counts) (day 7 skin wounds)	detection in skin wound tissue samples (day 7 skin wounds; HTS of whole wound tissue samples)
CAELNDGLC [T7 phage clone of the custom-made library]	1,851	1,082	0	0	0.70%	4.98%	0%	–	–	–	–	–
CARSKNKDC [CARSKNKDC (CAR), T7 phage clone displaying known wound-homing, tissue-penetrating peptide CAR]	29,894	1,614	0	17,713	11.34%	7.43%	94.74%	–	–	–	–	–
CARSKNKDC [FAM-labeled synthetic CAR peptide (…), known cell- and tissue-penetrating homing peptide, reference compound]	–	–	–	–	–	–	–	accumulate in the CHO-K cells	–	–	–	–
CDDYQQISC	–	–	–	–	–	–	–	–	21 counts	10 counts	11 counts	–
CERESTKIC [T7 phage clone of the custom-made library]	93,283	3,133	0	0	35.39%	14.42%	0%	–	–	–	–	–
CFCQLMYQC	–	–	–	–	–	–	–	–	13 counts	8 counts	5 counts	–
CKKNEINNC	–	–	–	–	–	–	–	–	16 counts	6 counts	10 counts	found in one skin wound sample
CKMLYEYHC	–	–	–	–	–	–	–	–	18 counts	1 counts	17 counts	–
CKSVKNREC [T7 phage clone of the custom-made library]	108,554	14,429	2,473	0	41.18%	66.39%	0%	–	–	–	–	–
CLLGKNNSC [T7 phage clone of the custom-made library]	785	0	0	0	0.30%	0%	0%	–	–	–	–	–
CLLIYNWSC	–	–	–	–	–	–	–	–	17 counts	14 counts	3 counts	–
CLSQTYRIC	–	–	–	–	–	–	–	–	21 counts	19 counts	2 counts	–
CLTVLSEQC	–	–	–	–	–	–	–	–	15 counts	8 counts	7 counts	–
CNGSALPVC [T7 phage clone of the custom-made library]	3,300	0	0	0	1.25%	0%	0%	–	–	–	–	–
CNYLVEKNC	–	–	–	–	–	–	–	–	23 counts	14 counts	9 counts	–
CPKKHHLDC	–	–	–	–	–	–	–	–	42 counts	19 counts	23 counts	–
CRGDKGPDC [CRGDKGPDC (iRGD), T7 phage clone displaying tissue-penetrating homing peptide iRGD]	8,709	1,172	0	984	3.30%	5.39%	5.26%	–	–	–	–	–
CRKDKC [CRKDKC (CRK), T7 phage clone displaying CRK peptide, homes to angiogenic vessels, lacks tissue penetration]	17,235	303	0	0	6.54%	1.39%	0%	–	–	–	–	–
CRMKFYSEYC	–	–	–	–	–	–	–	–	11 counts	2 counts	9 counts	–
CYHDTYPNC	–	–	–	–	–	–	–	–	28 counts	14 counts	14 counts	–
CYWEDKNLC	–	–	–	–	–	–	–	–	15 counts	6 counts	9 counts	–
